Structures can show the parent of a compound that is named as a salt.
Tests used:
Format in all cases: biochemical
[1] = target: LOXL2 (Homo sapiens (Human), UniProt Q9Y4K0); test: LOXL2 inhibition, Amplex Red oxidation assay; details: 30 min preincubation at 37 °C, putrescine substrate
Source text: (§1) Lysyl oxidase (LOX) is an extracellular copper dependent enzyme which oxidizes peptidyl lysine and hydroxylysine residues in collagen and lysine residues in elastin to produce peptidyl alpha-aminoadipic-delta-semialdehydes. […] There are five LOX family members; these are LOX, LOXL1, LOXL2, LOXL3 and LOXL4. LOX and LOXL family members can be acquired as recombinant active proteins from commercial sources, or extracted from animal tissues like bovine aorta, tendons, pig skin; or prepared from cell cultures. The inhibitory effects of the compounds of the present invention were tested against the given LOX-LOXL preparation using a method based on the detection of hydrogen peroxide with an Amplex Red oxidation assay (Zhou et al. A stable nonfluorescent derivative of resorufin for the fluorometric determination of trace hydrogen peroxide: applications in detecting the activity of phagocyte NADPH oxidase and other oxidases. Anal. Biochem. 1997; 253, 162-168). The assay was developed using either 384 or 96 well format. Briefly, in a standard black, clear bottom 384 well plate assay 25 μL of a dilution of any of the isoenzymes and orthologues in 1.2 M urea, 50 mM sodium borate buffer (pH 8.2) were added into each well in the presence of 1 μM mofegiline and 0.5 mM pargyline (to inhibit SSAO and MAO-B and MAO-A, respectively; not necessary if the enzyme is from a recombinant or purified form). Test compounds were dissolved in DMSO and tested in a Concentration Response Curve (CRC) with 11 data points, typically in the micromolar or nanomolar range after incubation with the enzyme for 30 min at 37° C. Twenty five μL of a reaction mixture containing twice the KM concentration of putrescine (Sigma Aldrich, e.g. 20 mM for LOX, or 10 mM for LOXL2 and LOXL3), 120 μM Amplex Red (Sigma Aldrich) and 1.5 U/mL horseradish peroxidase (Sigma Aldrich) prepared in 1.2 M urea, 50 mM sodium borate buffer (pH 8.2) were then added to the corresponding wells. The above volumes were doubled in the case of 96 wells plate. The fluorescence (RFU) was read every 2.5 min for 30 min at […] 37° C., excitation 565 nm and emission 590 (Optima; BMG labtech). The slope of the kinetics for each well was calculated using MARS data analysis software (BMG labtech) and this value was used to deduce the IC50 value (Dotmatics).

[2] = target: Bovine LOX (Bos taurus (Bovine), UniProt P33072); test: LOX inhibition, Amplex Red oxidation assay; details: 30 min preincubation at 37 °C, putrescine substrate
Source text: as §1, with “Test compounds were dissolved in DMSO and tested in a Concentration Response Curve (CRC) with 11 data points, typically in the micromolar or nanomolar range after incubation with the enzyme for 30 min at 37° C.” left out

[3] = target: LOXL1 (Homo sapiens (Human), UniProt Q08397); test: Jump dilution experiment, sustained inhibition of LOXL1; details: jump dilution after 40 min at 37 °C with 10× or 30× IC50; vs non-inhibited controls;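 also: 30× IC50 used only where needed so inhibitor exceeds enzyme concentration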
Protocol: Jump Dilution experiment: The assay was developed using a 96 well format and the starting enzyme concentration was set 100 times higher than for the inhibition studies. […] After the incubation, the mixture was diluted 50× in assay buffer, followed by a further 2× dilution in Amplex Red-horseradish peroxidase-putrescine reaction mix (same as per the inhibition studies) prior to the fluorescent measurement. Results were expressed in % recovery of the signal after a specified time by comparison with non-inhibited controls.

[4] = target: Human recombinant SSAO/VAP-1 (Homo sapiens (Human), UniProt Q16853); test: Inhibition of human recombinant SSAO/VAP-1; details: 30 min preincubation at 37 °C, benzylamine 600 μM; read-out: SSAO/VAP-1 Activity IC50
Protocol: Human recombinant SSAO/VAP-1 amine oxidase activity was determined using the coupled colorimetric method as described for monoamine oxidase, copper-containing amine oxidases and related enzymes (Holt A. and Palcic M., A peroxidase-coupled continuous absorbance plate-reader assay for flavin monoamine oxidases, copper-containing amine oxidases and related enzymes. Nat Protoc 2006; 1: 2498-2505). Briefly, a cloned cDNA template corresponding to residues 34-763 of human SSAO/VAP-1, and incorporating a mouse Ig kappa (κ) signal sequence, N-terminal flag epitope tag and tobacco etch virus (TEV) cleavage site, was assembled in a mammalian expression vector (pLO-CMV) by Geneart AG. This vector containing human SSAO/VAP-1 residues was transfected into CHO-Kl glycosylation mutant cell line, Lec 8. A clone stably expressing human SSAO/VAP-1 was isolated and cultured in large scale. Active human SSAO/VAP-1 was purified and recovered using immunoaffinity chromatography. This was used as the source for SSAO/VAP-1 activity. A high-throughput colorimetric assay was developed using either 96 or 384 well format. Briefly, in a standard 96 well plate assay 50 μL of purified human SSAO/VAP-1 (0.25 μg/mL) in 0.1 M sodium phosphate buffer (pH 7.4) was added into each well. Test compounds were dissolved in DMSO and tested in a Concentration Response Curve (CRC) with 4-11 data points, typically in the micromolar or nanomolar range after incubation with human SSAO/VAP-1 for 30 min at 37° C. After 30 min incubation, 50 μL of the reaction mixture containing 600 μM benzylamine (Sigma Aldrich), 120 μM Amplex Red (Sigma Aldrich) and 1.5 U/mL horseradish peroxidase (Sigma Aldrich) prepared in 0.1 M sodium phosphate buffer (pH 7.4) were added to the corresponding well. The fluorescence unit (RFU) was read every 2.5 min for 30 min at 37° C. excitation 565 nm and emission 590 (Optima; BMG labtech). The slope of the kinetics for each well was calculated using MARS data analysis software (BMG labtech) and this value was used to deduce the IC50 value (Dotmatics).

[5] = target: Recombinant human MAO-B (Homo sapiens (Human), UniProt P27338); test: Inhibition of human recombinant MAO-B; details: benzylamine 100 μM
Protocol: The specificity of the compounds of this invention was tested by determining their ability to inhibit MAO-B activities in vitro. Recombinant human MAO-B (0.06 mg/mL; Sigma Aldrich) was used as source of MAO-B enzyme activities. The assay was performed in a similar way as for human SSAO/VAP-1 (Example 28) except, the substrate benzylamine was used at 100 μM.

Human recombinant SSAO/VAP-1, sequence (Q16853 34-763): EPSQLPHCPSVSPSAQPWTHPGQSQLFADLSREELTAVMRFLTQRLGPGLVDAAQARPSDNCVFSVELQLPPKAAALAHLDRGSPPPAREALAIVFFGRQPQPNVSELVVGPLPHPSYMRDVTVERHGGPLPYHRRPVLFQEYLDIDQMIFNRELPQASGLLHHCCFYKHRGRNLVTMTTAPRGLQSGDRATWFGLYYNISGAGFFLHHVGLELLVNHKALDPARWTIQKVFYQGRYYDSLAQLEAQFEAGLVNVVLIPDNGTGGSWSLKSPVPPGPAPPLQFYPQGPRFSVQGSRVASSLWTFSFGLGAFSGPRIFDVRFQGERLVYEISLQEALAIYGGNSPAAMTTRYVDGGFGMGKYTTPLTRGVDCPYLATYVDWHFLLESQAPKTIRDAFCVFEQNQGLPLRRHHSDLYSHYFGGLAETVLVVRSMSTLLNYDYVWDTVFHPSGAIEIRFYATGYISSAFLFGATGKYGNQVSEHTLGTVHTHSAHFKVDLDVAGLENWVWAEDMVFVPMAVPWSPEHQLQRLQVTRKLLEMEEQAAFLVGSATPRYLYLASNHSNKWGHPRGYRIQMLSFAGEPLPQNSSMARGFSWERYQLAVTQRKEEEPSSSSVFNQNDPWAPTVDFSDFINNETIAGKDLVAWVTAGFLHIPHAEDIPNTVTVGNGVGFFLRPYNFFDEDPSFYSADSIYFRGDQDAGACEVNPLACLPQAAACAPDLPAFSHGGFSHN
Recombinant human MAO-B, sequence (P27338 whole entry): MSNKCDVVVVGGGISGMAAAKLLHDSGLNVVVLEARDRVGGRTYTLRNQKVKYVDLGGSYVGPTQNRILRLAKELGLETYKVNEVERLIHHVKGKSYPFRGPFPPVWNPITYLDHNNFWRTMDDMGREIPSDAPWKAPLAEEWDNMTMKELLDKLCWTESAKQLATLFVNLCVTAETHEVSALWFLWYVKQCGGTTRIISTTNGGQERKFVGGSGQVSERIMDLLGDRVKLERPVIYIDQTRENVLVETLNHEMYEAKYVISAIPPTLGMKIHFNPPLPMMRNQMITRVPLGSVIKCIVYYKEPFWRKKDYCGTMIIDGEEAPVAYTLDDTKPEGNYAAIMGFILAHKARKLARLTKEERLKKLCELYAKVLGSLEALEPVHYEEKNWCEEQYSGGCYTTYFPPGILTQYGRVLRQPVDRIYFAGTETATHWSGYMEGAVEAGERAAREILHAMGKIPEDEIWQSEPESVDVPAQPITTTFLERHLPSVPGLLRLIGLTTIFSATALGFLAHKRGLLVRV
Bovine LOX, sequence (P33072 170-418): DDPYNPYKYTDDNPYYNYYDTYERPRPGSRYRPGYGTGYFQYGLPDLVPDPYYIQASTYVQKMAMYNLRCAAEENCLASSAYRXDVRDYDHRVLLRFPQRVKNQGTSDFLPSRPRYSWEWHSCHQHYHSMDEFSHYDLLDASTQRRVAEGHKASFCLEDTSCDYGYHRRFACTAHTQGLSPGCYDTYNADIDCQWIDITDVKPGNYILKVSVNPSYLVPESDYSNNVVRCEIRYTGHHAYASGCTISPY
LOXL1, sequence (Q08397 96-574, species assumed): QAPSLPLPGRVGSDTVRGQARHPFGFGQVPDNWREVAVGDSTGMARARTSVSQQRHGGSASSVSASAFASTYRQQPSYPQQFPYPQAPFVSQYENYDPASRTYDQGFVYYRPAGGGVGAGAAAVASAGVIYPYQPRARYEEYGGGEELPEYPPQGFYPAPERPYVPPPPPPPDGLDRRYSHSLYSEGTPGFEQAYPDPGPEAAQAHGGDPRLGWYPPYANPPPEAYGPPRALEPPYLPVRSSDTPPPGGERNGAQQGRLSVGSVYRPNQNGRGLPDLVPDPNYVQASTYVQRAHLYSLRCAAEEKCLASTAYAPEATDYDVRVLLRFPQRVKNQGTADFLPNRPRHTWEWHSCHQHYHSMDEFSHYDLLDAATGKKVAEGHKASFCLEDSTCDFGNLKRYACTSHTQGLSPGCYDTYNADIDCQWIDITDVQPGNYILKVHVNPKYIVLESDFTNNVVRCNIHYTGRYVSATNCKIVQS
LOXL2, sequence (Q9Y4K0 26-774): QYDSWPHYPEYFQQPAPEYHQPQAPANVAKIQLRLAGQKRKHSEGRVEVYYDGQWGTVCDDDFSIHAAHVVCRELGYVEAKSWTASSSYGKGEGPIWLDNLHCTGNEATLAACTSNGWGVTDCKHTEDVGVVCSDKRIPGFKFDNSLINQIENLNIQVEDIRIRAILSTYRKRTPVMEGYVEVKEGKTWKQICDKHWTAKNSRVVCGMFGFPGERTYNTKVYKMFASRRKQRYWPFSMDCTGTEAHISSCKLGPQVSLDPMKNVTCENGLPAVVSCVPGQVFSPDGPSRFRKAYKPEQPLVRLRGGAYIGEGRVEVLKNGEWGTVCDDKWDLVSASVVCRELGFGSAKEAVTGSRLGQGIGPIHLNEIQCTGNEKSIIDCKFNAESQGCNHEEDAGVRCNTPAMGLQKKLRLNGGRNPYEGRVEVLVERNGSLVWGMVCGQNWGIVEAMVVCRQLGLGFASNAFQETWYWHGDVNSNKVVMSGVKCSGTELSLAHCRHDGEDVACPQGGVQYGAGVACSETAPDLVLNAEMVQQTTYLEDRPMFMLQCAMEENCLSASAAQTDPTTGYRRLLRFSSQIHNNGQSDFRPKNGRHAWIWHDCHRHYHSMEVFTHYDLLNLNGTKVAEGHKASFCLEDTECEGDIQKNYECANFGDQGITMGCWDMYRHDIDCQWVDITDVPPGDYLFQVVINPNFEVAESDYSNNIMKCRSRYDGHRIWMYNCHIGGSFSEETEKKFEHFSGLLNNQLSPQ

| SMILES | IC50 [1] | IC50 [2] | LOXL1 - Recovery of activity. (%) [3] | IC50 [4] | IC50 [5] |
| --- | --- | --- | --- | --- | --- |
| NC/C=C(\F)CS(=O)(=O)c1ccccn1 [Compound 30, (Z)-3-fluoro-4-(pyridin-2-ylsulfonyl)but-2-en-1-amine dihydrochloride] | < 1 µM | < 10 µM | 1.9% |  |  |
| CC(C)c1ncccc1S(=O)(=O)C/C(F)=C/CN [Compound 45, (Z)-3-fluoro-4-(2-isopropylpyridin-3-ylsulfonyl)but-2-en-1-amine dihydrochloride] | < 1 µM | < 10 µM | 6.6% | > 30 µM |  |
| CC(C)N(C(C)C)S(=O)(=O)c1ccc(COc2ccccc2S(=O)(=O)C/C(F)=C/CN)cc1 [Compound 11, (Z)-4-((2-((4-amino-2-fluorobut-2-en-1-yl)sulfonyl)phenoxy)methyl)-N,N-diisopropylbenzenesulfonamide hydrochloride] | < 1 µM | < 1 µM | 10.2% | > 30 µM | > 30 µM |
| Cc1nc2c(S(=O)(=O)C/C(F)=C/CN)cccc2s1 [Compound 50, (Z)-3-fluoro-4-((2-methylbenzo[d]thiazol-4-yl)sulfonyl)but-2-en-1-amine hydrochloride] | < 1 µM | < 10 µM |  | > 30 µM |  |
| NC/C=C(\F)CS(=O)(=O)c1ccc2ccccc2n1 [Compound 32, (Z)-3-fluoro-4-(quinolin-2-ylsulfonyl)but-2-en-1-amine dihydrochloride] | < 1 µM | < 10 µM |  |  | > 30 µM |
| NC/C=C(\F)CS(=O)(=O)c1ccccc1OCc1ccccc1 [Compound 7, (Z)-4-((2-(benzyloxy)phenyl)sulfonyl)-3-fluorobut-2-en-1-amine hydrochloride] | < 1 µM | < 10 µM | 3.0% | > 30 µM | > 30 µM |
| NC/C=C(\F)CS(=O)(=O)c1cccc2cc(F)cnc12 [Compound 51, (Z)-3-fluoro-4-((3-fluoroquinolin-8-yl)sulfonyl)but-2-en-1-amine dihydrochloride] | < 1 µM | < 10 µM |  | > 10 µM | > 30 µM |
| NC/C=C(\F)CS(=O)(=O)c1cccc(F)c1 [Compound 38, (Z)-3-fluoro-4-(3-fluorophenylsulfonyl)but-2-en-1-amine hydrochloride] | < 1 µM | < 10 µM | 1.6% |  |  |
| NC/C=C(\F)CS(=O)(=O)c1ccncc1 [Compound 29, (Z)-3-fluoro-4-(pyridin-4-ylsulfonyl)but-2-en-1-amine dihydrochloride] | < 1 µM | < 10 µM | 8.6% |  |  |
| CC(C)NS(=O)(=O)c1ccc(COc2ccccc2S(=O)(=O)C/C(F)=C/CN)cc1 [Compound 14, (Z)-4-((2-((4-amino-2-fluorobut-2-en-1-yl)sulfonyl)phenoxy)methyl)-N-isopropylbenzenesulfonamide hydrochloride] | < 1 µM | < 1 µM | 1.9% | > 30 µM | > 30 µM |
| NC/C=C(\F)CS(=O)(=O)c1ccccc1OCc1ccc(S(N)(=O)=O)cc1 [Compound 8, (Z)-4-((2-((4-amino-2-fluorobut-2-en-1-yl)sulfonyl)phenoxy)methyl)benzenesulfonamide hydrochloride] | < 1 µM | < 1 µM | 35.1% | > 30 µM | > 30 µM |
| NC/C=C(\F)CS(=O)(=O)c1cc(C(F)(F)F)cc(C(F)(F)F)c1 [Compound 2, (Z)-4-((3,5-bis(trifluoromethyl)phenyl)sulfonyl)-3-fluorobut-2-en-1-amine hydrochloride] | < 10 µM | < 10 µM |  | > 30 µM | > 30 µM |
| CS(=O)(=O)c1ccc(S(=O)(=O)C/C(F)=C/CN)cc1 [Compound 3, (Z)-3-fluoro-4-((4-(methylsulfonyl)phenyl)sulfonyl)but-2-en-1-amine] | < 10 µM | < 10 µM |  | > 30 µM | > 30 µM |
| CC(C)N(C(C)C)S(=O)(=O)c1ccc(NC(=O)c2ccccc2S(=O)(=O)C/C(F)=C/CN)cc1 [Compound 15, (Z)-2-((4-amino-2-fluorobut-2-en-1-yl)sulfonyl)-N-(4-(N,N-diisopropylsulfamoyl)phenyl)benzamide hydrochloride] | < 1 µM | < 10 µM | 26.1% | > 30 µM | > 30 µM |
| Cc1ccc(S(=O)(=O)C/C(F)=C/CN)cn1 [Compound 46, (Z)-3-fluoro-4-(6-methylpyridin-3-ylsulfonyl)but-2-en-1-amine dihydrochloride] | < 1 µM | < 10 µM | 1.0% |  |  |
